Here are results for 17 molecules from patent US4950818A, “Method for treating ulcer” (Kuraray Company, Ltd., priority 1988, dated 1990).

Each structure is given as a SMILES string. Where only a bound is given, the exact number is not on record here.

Data set [1] relates to HCl-ethanol-induced ulcer at the mucosa of the stomach. As to the kind of experiment: Antiulcer activity (HCl-ethanol ulcer). The data set is classed as in vivo, rats. Particulars: rat, one hour before HCl-ethanol; for inhibition in vivo at 5 mg/kg: 5 mg/kg oral; for inhibition in vivo at 1 mg/kg: 1 mg/kg oral; for inhibition in vivo at 2.5 mg/kg: 2.5 mg/kg oral. The protocol:
1.5 ml of aqueous 60% ethanol solution containing 150 mM hydrochloric acid was orally administered to rats. One hour thereafter the rats were sacrificed and the length (mm) of HCl-ethanol-induced ulcer which was generated at the mucosa of the stomach was measured. Sum of the length of ulcer per animal is defined as ulcer coefficient. Specimens were each orally administered one hour before the HCl-ethanol administration. Inhibition rate was calculated by dividing the difference of ulcer coefficients of the control group and the specimen-administered group by the ulcer coefficient of the control group.

Data set [2] relates to pylorus ligation ulcer at the proventriculus part. As to the kind of experiment: Antiulcer activity (pylorus ligation ulcer). The class given is in vivo, rats. Particulars: rat, 100 mg/kg oral, 30 minutes before pylorus ligation; 13 hours. The protocol:
After rats weighing 210 to 230 g were made to fast for 24 hours, each pylorus part was ligated under ether anesthesia according to Shay et al. method [Castroenterogy, 5, 43 (1945)]. After leaving for 13 hours the animals were sacrificed, and each ulcer which had been generated at the proventriculus part was macroscopicly observed and evaluated according to the following 5 steps of ulcer index:
2; There are hyperemia or 5 or less of small ulcers
(diameter less than 3 mm).
3; There are 5 or more of small ulcers or one large
ulcer (diameter equal to or more than 3 mm).
4; There are 2 or more of large ulcers.
Compound (1) (specimen) as prepared according to the method in Reference example and spizofurone as a control specimen were orally administered 30 minutes before the pylorus ligation. Inhibition rate was calculated by dividing the difference of ulcer coefficients of the control group and the specimen-administered group by the ulcer coefficient of the control group.

A short description of the next data set: Acute toxicity (oral). Particulars: mouse, in vivo, male ICR-strain mice. The protocol: Acute toxicity tests through oral administration were carried out using male ICR-strain mice (5 weeks old).

In the case of `O=C1C=C(/C=C/c2ccc(F)cc2)C(O)O1` (centres unmarked) [(9)], the inhibition in vivo at 5 mg/kg in data set [1] (1 h, read-out: Inhibition rate) came to 100%. Take `O=C1C=C(/C=C/c2ccc(Cl)cc2Cl)C(O)O1` (centres unmarked) [(12)]: in data set [1] (1 h, read-out: Inhibition rate), the inhibition in vivo at 5 mg/kg came out at 54.1%. Still for that read-out and setting: as for `COc1ccc(OC)c(/C=C/C2=CC(=O)OC2O)c1` (centres unmarked) [(7)], the figure is 98.6%.

Regarding `COc1cccc(/C=C/C2=CC(=O)OC2O)c1OC` (centres unmarked) [(6)], in data set [1] (1 h, read-out: Inhibition rate), the inhibition in vivo at 1 mg/kg was 59.8%. With `Cc1cc(C)c(/C=C/C2=CC(=O)OC2O)c(C)c1` (centres unmarked) [Compound (3)], the inhibition in vivo at 5 mg/kg in data set [1] (1 h, read-out: Inhibition rate) is 100%. For `O=C1C=C(/C=C/c2ccc([N+](=O)[O-])cc2)C(O)O1` (centres unmarked) [(13)], the inhibition in vivo at 2.5 mg/kg in data set [1] (1 h, read-out: Inhibition rate) was 34.1%. For the molecule `O=C1C=C(/C=C/c2ccc(Cl)cc2)C(O)O1` (centres unmarked) [(10)], in data set [1] (1 h, read-out: Inhibition rate), the inhibition in vivo at 5 mg/kg was 100%. On to `CC(=O)c1ccc2c(c1)C(=O)C1(CC1)O2` [Spizofurone, reference compound], for which the Inhibition rate in data set [1] (100 mg/kg oral) is 86.6%; in data set [2], 1.5%. Take `CCc1ccc(/C=C/C2=CC(=O)OC2O)cc1` (centres unmarked) [(4)]: in data set [1] (1 h, read-out: Inhibition rate), the inhibition in vivo at 2.5 mg/kg was determined as 86.2%. Turning to `O=C1C=C(/C=C/c2ccccc2)C(O)O1` (centres unmarked) [Compound (1), 5-hydroxy-4-[2-phenyl-(E)-ethenyl]-2(5H)-furanone], the inhibition in vivo at 5 mg/kg in data set [1] (1 h, read-out: Inhibition rate) stood at 97.9%. For the same molecule, in data set [2], the Inhibition rate is 80.3%. The LD50 in the data set “Acute toxicity (oral)” was ≥ 2000 mg/kg. `O=C1C=C(/C=C/c2cccc(O)c2)C(O)O1` (centres unmarked) [(16)]: the inhibition in vivo at 2.5 mg/kg in data set [1] (1 h, read-out: Inhibition rate) was determined as 42.7%. Regarding `Cc1ccc(/C=C/C2=CC(=O)OC2O)cc1` (centres unmarked) [(2)], the inhibition in vivo at 5 mg/kg in data set [1] (1 h, read-out: Inhibition rate) was found to be 98.3%.

Take `O=C1C=C(/C=C/c2cccc(Cl)c2)C(O)O1` (centres unmarked) [(11)]: the inhibition in vivo at 2.5 mg/kg in data set [1] (1 h, read-out: Inhibition rate) amounted to 91%.

On to `N#Cc1ccc(/C=C/C2=CC(=O)OC2O)cc1` (centres unmarked) [(15)], for which the inhibition in vivo at 5 mg/kg in data set [1] (1 h, read-out: Inhibition rate) was 99.4%. `CC(=O)CCC=C(C)CCC=C(C)CCC=C(C)CCC=C(C)C` [Teprenone, reference compound]: the inhibition in vivo at 25 mg/kg in data set [1] (1 h, 25 mg/kg oral, read-out: Inhibition rate) turned out to be 48.9%.

As for `O=C1C=C(/C=C/c2c(F)c(F)c(F)c(F)c2F)C(O)O1` (centres unmarked) [(8)], the inhibition in vivo at 1 mg/kg in data set [1] (1 h, read-out: Inhibition rate) came to 67.4%. On to `COc1ccc(/C=C/C2=CC(=O)OC2O)cc1` (centres unmarked) [(5)], for which the inhibition in vivo at 2.5 mg/kg in data set [1] (1 h, read-out: Inhibition rate) amounted to 98.8%.

The term LD50 denotes the dose at which mortality reaches 50%. Low readings indicate greater toxicity, high ones lower toxicity.
